Data as given in patent publication US5260257A, “Thermal transfer sheet” (Dai Nippon Printing Co., Ltd., priority 1991, dated 1993).
Each block holds one compound with its values, some of them ahead of it.

What was measured:
[1] = ink stability test (precipitation of the dye in the ink observed with the naked eye); assay type: physicochemical; details: Table D1; room temperature (20°±3° C.), 48 hr
Method: The following ink composition for the formation of a dye supporting layer was prepared and heated to 70° C. to completely dissolve the ink.

[2] = light fastness test (Example D1 series); assay type: physicochemical; details: Table D1; xenon, 50° C., 70 kJ/m^2
Method: (§1) The light fastness test was conducted as follows.
(§2) Irradiation was conducted by means of a xenon fadeometer Ci35A (manufactured by Atlas) under conditions of a black panel temperature of 50° C. and an integrating irradiation energy of 70 kJ/m^2.
(§3) The percentage fading was determined from a density change around an initial density of 1.0 according to the following equation.
(§4) Percentage fading=(1-I/I0)×100 (%)
(§5) I=optical density after irradiation; and
(§6) I0 =optical density before irradiation.
(§7) .largecircle.: less than 20% in the percentage fading
Δ: 20% or more in the percentage fading

[3] = system: S. typhimurium TA100, TA98 and TA1538; assay: Ames test (mutagenic test); assay type: cell-based; details: positive if reversion colonies twice or more vs control
Method: Ames test was conducted as a mutagenic test.
Strains used were S. typhimurium TA100, TA98 and TA1538.
When the increase in the reversion colony was twice or more as compared with that in the case of the control, the mutagenicity was judged as positive, while when the increase in the reversion colony was less than twice as compared with that in the case of the control, the mutagenicity was judged as negative.

[4] = light fastness test (xenon fadeometer, percentage fading); assay type: physicochemical; details: 70 kJ/m^2
Method: as §1, §2, §3, §4, §5, §6, §7
X : 20% or more in the percentage fading

[5] = Table A2, dyes of Table A1, 50° C.
[6] = Table C2, dyes of Table C1, 50° C.
[7] = Table B2, dyes of Table B1, 50° C.
[8] = Table A3, Comparative Examples A1-A6, 50° C.
[9] = Table B3, Comparative Examples B1-B6, 50° C.
[10] = Table C (C3), Comparative Examples C1-C6, 50° C.

Structure (SMILES): CCN(CC)c1ccc(N=C2C=C(NC(C)=O)C(=O)C(Cl)=C2C)c(C)c1 [Comp. Ex. D1]
stability of ink [1]: large amount of crystal
Light fastness [2]: .largecircle. (less than 20% in the percentage fading)
mutagenicity [3]: positive

Structure (SMILES): CCN(CC)c1ccc(N=C2C=C(NC(=O)C3CC3)C(=O)C(Cl)=C2C)c(C)c1 [compound 1]
Light fastness [4, 5]: .largecircle. (less than 20% in the percentage fading)

Structure (SMILES): CCOc1cc(N(CC)CC)ccc1N=C1C=CC(=O)C(NC(=O)C2CC3C=CC2C3)=C1 (stereo not drawn) [Dye No. 5 in Table C1]
Light fastness [4, 6]: .largecircle. (less than 20% in the percentage fading)

Structure (SMILES): CCN(CCO)c1ccc(N=C2C=C(NC(=O)C3CC3)C(=O)C(Cl)=C2C)c(C)c1 [compound 2]
Light fastness [4, 5]: .largecircle. (less than 20% in the percentage fading)

Structure (SMILES): CCN(CCO)c1ccc(N=C2C=C(NC(=O)C3CC3)C(=O)C=C2NC(C)=O)c(NS(C)(=O)=O)c1 [compound 10]
Light fastness [4, 5]: .largecircle. (less than 20% in the percentage fading)

Structure (SMILES): CCN(CC)c1ccc(N=C2C=C(NC(=O)c3ccsc3)C(=O)C(Cl)=C2C)c(C)c1 [compound 19]
Light fastness [4, 5]: .largecircle. (less than 20% in the percentage fading)

Structure (SMILES): CCN(CCNS(C)(=O)=O)c1ccc(N=C2C=C(NC(=O)C3CC=CCC3)C(=O)C(Cl)=C2C)c(C)c1 (stereo not drawn) [compound 24]
Light fastness [4, 7]: .largecircle. (less than 20% in the percentage fading)

Structure (SMILES): CCN(CC)c1ccc(N=C2C=C(NC(=O)C3CC3)C(=O)C(Cl)=C2C)cc1 [compound 11]
Light fastness [4, 5]: .largecircle. (less than 20% in the percentage fading)

Structure (SMILES): CCOc1cc(N(CC)CC)ccc1N=C1C=C(NC(=O)C2CC=CCC2)C(=O)C(Cl)=C1C (stereo not drawn) [Dye No. 22 in Table B1]
Light fastness [4, 7]: .largecircle. (less than 20% in the percentage fading)

Structure (SMILES): CCOCCN(CC)c1ccc(N=C2C=C(NC(=O)C3CC4CCC3C4)C(=O)C(Cl)=C2C)c(C)c1 (stereo not drawn) [Dye No. 17 in Table C1]
Light fastness [4, 6]: .largecircle. (less than 20% in the percentage fading)

Structure (SMILES): CCN(CC)c1ccc(N=C2C=C(NC(=O)C3CCCC3)C(=O)C(Cl)=C2C)c(NC(C)=O)c1 [compound 14]
Light fastness [4, 5]: .largecircle. (less than 20% in the percentage fading)

Structure (SMILES): CCN(CC)c1ccc(N=C2C=C(NC(=O)c3ccccc3)C(=O)C(Cl)=C2C)c(C)c1 [Comparative Example A6, reference compound]
Light fastness [4, 8]: .largecircle. (less than 20% in the percentage fading)

Structure (SMILES): CCN(CC)c1ccc(N=C2C=C(NC(=O)c3ccsc3)C(=O)C=C2NC(C)=O)c(C)c1 [compound 21]
Light fastness [4, 5]: .largecircle. (less than 20% in the percentage fading)

Structure (SMILES): CCN(CC)c1ccc(N=C2C=C(NC(=O)c3ccsc3)C(=O)C(Cl)=C2C)c(NC(C)=O)c1 [compound 20]
Light fastness [4, 5]: .largecircle. (less than 20% in the percentage fading)

Structure (SMILES): CCN(CCO)c1ccc(N=C2C=C(NC(=O)C3CC4C=CC3C4)C(=O)C(Cl)=C2C)c(C)c1 (stereo not drawn) [Dye No. 3 in Table C1]
Light fastness [4, 6]: .largecircle. (less than 20% in the percentage fading)

Structure (SMILES): CCN(CC)c1ccc(N=C2C=C(NC(=O)C3=CCC=CC3)C(=O)C(Cl)=C2C)c(C)c1 [Dye No. 10 in Table B1]
Light fastness [4, 7]: .largecircle. (less than 20% in the percentage fading)

Structure (SMILES): CCN(CCO)c1ccc(N=C2C=C(NC(=O)C3=CCC=CC3)C(=O)C(Cl)=C2C)c(C)c1 [Dye No. 21 in Table B1]
Light fastness [4, 7]: .largecircle. (less than 20% in the percentage fading)

Light fastness [4, 8]: Δ
Light fastness [4, 9]: Δ
Light fastness [4, 10]: Δ
Structure (SMILES): CC(C)Nc1ccc(NC(C)C)c2c1C(=O)c1ccccc1C2=O [Comp. Ex. A2, C.I. Disperse Blue 134, reference compound]

Light fastness [4, 8]: Δ
Light fastness [4, 9]: Δ
Light fastness [4, 10]: Δ
Structure (SMILES): CNc1ccc(N)c2c1C(=O)c1ccccc1C2=O [Comp. Ex. A5, C.I. Disperse Violet 4, reference compound]

Structure (SMILES): CCN(CC)c1ccc(N=C2C=C(NC(=O)C3CC4C=CC3C4)C(=O)C(Cl)=C2C)c(NC(C)=O)c1 (stereo not drawn) [Dye No. 8 in Table C1]
Light fastness [4, 6]: .largecircle. (less than 20% in the percentage fading)

Structure (SMILES): CCN(CC)c1ccc(N=C2C=C(NC(=O)C3CCCCC3)C(=O)C(Cl)=C2C)c(C)c1 [Comp. Ex. D2]
stability of ink [1]: small amount of crystal
Light fastness [2]: .largecircle. (less than 20% in the percentage fading)
mutagenicity [3]: negative

Light fastness [4, 8]: Δ
Light fastness [4, 9]: Δ
Light fastness [4, 10]: Δ
Structure (SMILES): CNc1ccc(Nc2cccc(C)c2)c2c1C(=O)c1ccccc1C2=O [Comp. Ex. A3, C.I. Solvent Blue 63, reference compound]

Structure (SMILES): CCN(CC)c1ccc(N=C2C=CC(=O)C(NC(=O)C3CC=CCC3)=C2)c(C)c1 (stereo not drawn) [compound 23]
Light fastness [4, 7]: .largecircle. (less than 20% in the percentage fading)

Structure (SMILES): CCC1=C(Cl)C(=O)C(NC(=O)C2CC=CCC2)=CC1=Nc1ccc(N(CC)CC)cc1C (stereo not drawn) [Dye No. 5 in Table B1]
Light fastness [4, 7]: .largecircle. (less than 20% in the percentage fading)

Structure (SMILES): CCN(CC)c1ccc(N=C2C=C(NC(=O)C3CC4C=C(C)C3C4)C(=O)C=C2NC(C)=O)c(C)c1 (stereo not drawn) [Dye No. 20 in Table C1]
Light fastness [4, 6]: .largecircle. (less than 20% in the percentage fading)

Structure (SMILES): CCN(CC)c1ccc(N=C2C=C(NC(=O)C3CCCC3)C(=O)C(Cl)=C2C)cc1 [compound 17]
Light fastness [4, 5]: .largecircle. (less than 20% in the percentage fading)

Structure (SMILES): CCOc1cc(N(CC)CC)ccc1N=C1C=CC(=O)C(NC(=O)C2CC=CCC2)=C1 (stereo not drawn) [Dye No. 4 in Table B1]
Light fastness [4, 7]: .largecircle. (less than 20% in the percentage fading)

Structure (SMILES): CCN(CC)c1ccc(N=C2C=C(NC(=O)C3CC4C=CC3C4)C(=O)C(Cl)=C2C)c(C)c1 (stereo not drawn) [Dye No. 1 in Table C1]
Light fastness [4, 6]: .largecircle. (less than 20% in the percentage fading)

Structure (SMILES): CCN(CC)c1ccc(N=C2C=C(NC(=O)C3CC4C=CC3S4)C(=O)C=C2NC(C)=O)c(C)c1 (stereo not drawn) [Dye No. 23 in Table C1]
Light fastness [4, 6]: .largecircle. (less than 20% in the percentage fading)
